Measured values taken from patent US9399051B2, “Dipeptidyl peptidase-4 inhibitor” (Kaneka Corporation, priority 2009, dated 2016).

System: C57BL/6J SPF male mice
Experiment: Oral glucose tolerance test, blood sugar levels in mice
Assay type: in vivo
Conditions: mean ± standard error; for Blood sugar level, 0 minutes (pretest value): fasted mice, pretest before administration, in mg/dL (unit assumed); for Blood sugar level, 30 minutes after glucose administration / Blood sugar level, 60 minutes after glucose administration / Blood sugar level, 120 minutes after glucose administration: oral 10 mL/kg (beans 400 mg/mL, sitagliptin 0.1 mg/mL) 30 minutes before oral glucose
Protocol: The enzyme-treated azuki bean, tora bean and otebo bean prepared in Example 2 and an enzyme-treated defatted soybean prepared using the same method as Example 2 were evaluated for their actual blood sugar lowering effects in the body by using an oral glucose tolerance test. C57BL/6J SPF male mice (Clea Japan, Inc.) were used at age 10 weeks for the study animals. Twenty mice were divided into four groups of 5 mice each. In a single experiment, evaluation was carried out on four groups consisting of a control group (administered distilled water), a positive control group (administered sitagliptin) and two sample groups. Two experiments were carried out and a total of four samples were evaluated.
Blood samples were collected from the caudal veins of the mice that had been fasting since the previous evening, and blood sugar levels were measured using a simple blood glucose measuring device (GLUTEST ACE®, Sanwa Kagaku Kenkyusho Co., Ltd.) to determine pretest values (0 minutes). 100 mg tablets of sitagliptin (MERCK) were ground with a mortar and suspended in water to a concentration of 0.1 mg/mL as sitagliptin for use as a positive control. Each of the enzyme-treated beans prepared in Example 2 (or in accordance with the method thereof) was dissolved with distilled water to a concentration of 400 mg/mL for use as an administration sample. Distilled water (control group), the sitagliptin suspension (positive control group) or the enzyme-treated bean aqueous solution (sample group) was administered orally at 10 mL/kg of body weight. A 40% aqueous glucose solution was administered orally at 5 mL/kg of body weight 30 minutes after administering the distilled water, sitagliptin suspension, or sample. Blood samples were collected from the caudal veins of the mice at, 30, 60 and 120 minutes after the oral administration of glucose, followed by measurement of these blood sugar levels in the same manner as that used for measurement of pretest values.

N[C@@H](CC(=O)N1CCn2c(nnc2C(F)(F)F)C1)Cc1cc(F)c(F)cc1F [Sitagliptin, sitagliptin]
Blood sugar level, 0 minutes (pretest value) (Experiment 1): 82.4 ± 7.0
Blood sugar level, 30 minutes after glucose administration (Experiment 1): 270.6 ± 24.2
Blood sugar level, 60 minutes after glucose administration (Experiment 1): 185.4 ± 16.2
Blood sugar level, 120 minutes after glucose administration (Experiment 1): 110.2 ± 12.3
Blood sugar level, 0 minutes (pretest value) (Experiment 2): 72.0 ± 4.7
Blood sugar level, 30 minutes after glucose administration (Experiment 2): 215.4 ± 8.5
Blood sugar level, 60 minutes after glucose administration (Experiment 2): 145.0 ± 8.9
Blood sugar level, 120 minutes after glucose administration (Experiment 2): 93.6 ± 8.7
